Source: patent US4200626A, “Haloplatinate dental composition for preventing and inhibiting dental caries” (Toyo Seiyaku Kasei Co., Ltd., priority 1978, dated 1980)

Assays:
[1] = test system: protease (collagenase or trypsin); assay: Inhibition of protease digestion of the soft tissue in dentin (clear zone on opaque agar plates with decalcified dentin powder); format: biochemical; details: for Clear zone: aqueous solution pH 5.4
Protocol: The ability to inhibit digestion of the soft tissue in dentin was estimated according to the method described by Yanagida et al [Yanagida et al, Shonishikagaku Zasshi, Vol. 9, page 39 (1971)]. That is, firstly, a certain amount of human decalcified dentin powder was treated with a composition to be tested for certain minutes and then unbonded excess components were removed by dialysis to obtain a sample powder. Then, opaque agar plates were prepared by adding the sample powder, and a protease (collagenase or trypsin) was added to the plates. The inhibiting ability was estimated by observing whether a clear zone was formed on the plate or not. The clear zone is formed by dissolution of the powder with the enzyme, and the formation thereof means digestion of the soft tissue in dentin.
Each composition used in the test is an aqueous solution at pH 5.4.

[2] = Inhibition of acid decalcification of the hard tissue in dentin (human dentin powder); details: for Inhibition rate of decalcification: solution containing 2% platinum (or saturated) or 2% NaF, pH 5.4
Protocol: The ability to inhibit decalcification of the hard tissue was also estimated according to the method described by Nishino [Nishino, Osaka University Shigaku Zasshi, Vol. 1, page 1 (1969)]. That is, firstly, a certain amount of human dentin powder was treated with a composition to be tested for certain minutes and then unbonded excess components were removed by washing with water to obtain a sample powder. Then, the sample powder was treated with an acid solution (decalcification) and the amount of calcium in the solution, which was dissolved in the solution by action of the acid, was determined (sample calcium content). Similarly, untreated dentin powder was added to an acid solution and the amount of calcium in the acid solution was determined (control calcium content). From these values, the inhibition rate of decalcification was calculated as follows: [formula]
As a reference, a similar test was done by using an aqueous solution containing 2% of sodium fluoride (pH 5.4).

mice = assay: LD50 in mice (p.o.); format: in vivo
Text: Further, the dental composition of the present invention is useful from a viewpont of toxicity since these platinum compounds have lower toxicity than that of NaF.

[Cl][Pt-2]([Cl])([Cl])([Cl])([Cl])[Cl].[NH4+].[NH4+] [(NH4)2 PtCl6, ammonium hexachloroplatinate]
Clear zone ([1]; platinum content 0.001%): Present
Clear zone ([1]; platinum content 0.01%): None
Clear zone ([1]; platinum content 0.1%): None

[F-].[Na+] [NaF, sodium fluoride, reference compound]
Inhibition rate of decalcification ([2]; decalcification time 0.5 hour): 40.03%
Inhibition rate of decalcification ([2]; decalcification time 1.0 hour): 43.29%
Inhibition rate of decalcification ([2]; decalcification time 1.5 hour): 44.12%
Inhibition rate of decalcification ([2]; decalcification time 2.0 hour): 44.02%
Inhibition rate of decalcification ([2]; decalcification time 3.0 hour): 44.33%
Inhibition rate of decalcification ([2]; decalcification time 5.0 hour): 44.79%
Inhibition rate of decalcification ([2]; decalcification time 24.0 hour): 44.93%
Inhibition rate of decalcification ([2]; decalcification time 48.0 hour): 45.45%
inhibition of the digestion ([1]; similar test using sodium fluoride, result in words): no inhibition of the digestion was observed
LD50 (p.o.) (mice): about 90 mg per kg of body weight

[I-].[I-].[I-].[I-].[I-].[I-].[K+].[K+].[Pt+4] [K2 PtI6, potassium hexaiodoplatinate]
Clear zone ([1]; platinum content 0.001%): Present
Clear zone ([1]; platinum content 0.01%): None
Clear zone ([1]; platinum content 0.1%): None

[Cl][Pt-2]([Cl])([Cl])([Cl])([Cl])[Cl].[Na+].[Na+] [Na2 PtCl6, sodium hexachloroplatinate]
Inhibition rate of decalcification ([2]; decalcification time 0.5 hour): 43.42%
Inhibition rate of decalcification ([2]; decalcification time 1.0 hour): 45.23%
Inhibition rate of decalcification ([2]; decalcification time 1.5 hour): 45.15%
Inhibition rate of decalcification ([2]; decalcification time 2.0 hour): 45.36%
Inhibition rate of decalcification ([2]; decalcification time 3.0 hour): 47.57%
Inhibition rate of decalcification ([2]; decalcification time 5.0 hour): 47.77%
Inhibition rate of decalcification ([2]; decalcification time 24.0 hour): 48.00%
Inhibition rate of decalcification ([2]; decalcification time 48.0 hour): 48.20%
inhibiting effect on decalcification of the hard tissue in dentin ([2]; result in words, from Table 2): superior inhibiting effect to that containing NaF at every decalcification time and the effect thereof is not decreased even though after 48 hours
Clear zone ([1]; platinum content 0.001%): Present
Clear zone ([1]; platinum content 0.01%): None
Clear zone ([1]; platinum content 0.1%): None
LD50 (p.o.) (mice): 130 mg per kg of body weight

[Cl][Pt-2]([Cl])([Cl])[Cl].[K+].[K+] [K2 PtCl4, potassium tetrachloroplatinate]
Inhibition rate of decalcification ([2]; decalcification time 0.5 hour): 27.28%
Inhibition rate of decalcification ([2]; decalcification time 1.0 hour): 28.11%
Inhibition rate of decalcification ([2]; decalcification time 1.5 hour): 30.86%
Inhibition rate of decalcification ([2]; decalcification time 2.0 hour): 29.65%
Inhibition rate of decalcification ([2]; decalcification time 3.0 hour): 30.22%
Inhibition rate of decalcification ([2]; decalcification time 5.0 hour): 31.54%
Inhibition rate of decalcification ([2]; decalcification time 24.0 hour): 31.69%
Inhibition rate of decalcification ([2]; decalcification time 48.0 hour): 32.27%
Clear zone ([1]; platinum content 0.001%): Present
Clear zone ([1]; platinum content 0.01%): None
Clear zone ([1]; platinum content 0.1%): None
LD50 (p.o.) (mice): 97 mg per kg of body weight
